# Measured values taken from patent US20110118262A1, “Pyrrolidinyl and Piperidinyl Compounds Useful as NHE-1 Inhibitiors” (BOEHRINGER INGELHEIM INTERNATIONAL GMBH, priority 2008, published 2011).
# Biological target: T1, NHE-1 (Homo sapiens, UniProt P19634)
# T1 construct: endogenous in cells; host or cells: HT-29
# Assay: Evaluation of NHE-1 Inhibition (pHi) in HT-29 cells
# Format: cell-based
# Settings: BCECF dye, 50% inhibition of the intracellular pH recovery, read-out: NHE1 HT29 pHi IC50
# Summary of the method: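 Intracellular pH measured with BCECF in HT-29 cells after 24 h culture. Cells dye-loaded 30 min at 37° C, then acid-loaded with NH4Cl-containing choline buffer (pH 7.5) for 30 min at RT. Compounds added on an FDSS6000 fluorescence reader.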
# T1 sequence (P19634 whole entry): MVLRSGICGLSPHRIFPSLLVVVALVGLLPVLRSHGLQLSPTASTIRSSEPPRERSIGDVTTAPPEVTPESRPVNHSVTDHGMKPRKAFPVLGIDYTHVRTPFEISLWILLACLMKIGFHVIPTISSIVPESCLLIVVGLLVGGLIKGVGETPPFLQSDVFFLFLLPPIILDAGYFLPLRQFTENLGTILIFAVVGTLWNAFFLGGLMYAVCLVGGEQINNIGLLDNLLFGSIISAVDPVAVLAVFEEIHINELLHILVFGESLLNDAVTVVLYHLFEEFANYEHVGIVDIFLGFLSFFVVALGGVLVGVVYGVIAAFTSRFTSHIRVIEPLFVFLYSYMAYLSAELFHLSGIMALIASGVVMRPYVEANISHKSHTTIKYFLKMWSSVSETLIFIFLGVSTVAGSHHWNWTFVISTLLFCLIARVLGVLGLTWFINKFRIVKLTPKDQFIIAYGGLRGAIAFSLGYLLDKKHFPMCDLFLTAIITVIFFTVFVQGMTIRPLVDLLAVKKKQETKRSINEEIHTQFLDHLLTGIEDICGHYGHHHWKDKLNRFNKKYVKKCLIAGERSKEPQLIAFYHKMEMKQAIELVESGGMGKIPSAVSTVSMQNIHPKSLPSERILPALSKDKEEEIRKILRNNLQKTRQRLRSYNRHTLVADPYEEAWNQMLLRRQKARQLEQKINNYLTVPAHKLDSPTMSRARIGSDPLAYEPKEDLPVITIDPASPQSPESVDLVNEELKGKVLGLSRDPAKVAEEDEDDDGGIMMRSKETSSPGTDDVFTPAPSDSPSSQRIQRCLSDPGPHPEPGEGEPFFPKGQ
row,Structure (SMILES),IC50 [nM]
1,COc1cc(C2CCN(C(=O)c3cccc(C#N)c3)CC2)c(C(F)(F)F)cc1C(=O)NC(=N)N [N-{4-[1-(3-Cyano-benzoyl)-piperidin-4-yl]-2-methoxy-5-trifluoromethyl-benzoyl}-guanidine],19
2,N#Cc1cccc(C(=O)N2CCC(c3ccc(C(=O)NC(=N)N)cc3C(F)(F)F)CC2)c1 [N-{4-[1-(3-Cyano-benzoyl)-piperidin-4-yl]-3-trifluoromethyl-benzoyl}-guanidine],65
3,CN(C)c1cccc(C(=O)N2CCC(c3ccc(C(=O)NC(=N)N)cc3C(F)(F)F)CC2)c1 [N-{4-[1-(3-Dimethylamino-benzoyl)-piperidin-4-yl]-3-trifluoromethyl-benzoyl}-guanidine],77
4,CN(C)CCC(=O)N1CCC(c2ccc(C(=O)NC(=N)N)cc2C(F)(F)F)CC1 [N-{4-[1-(3-Dimethylamino-propionyl)-piperidin-4-yl]-3-trifluoromethyl-benzoyl}-guanidine],10
5,N=C(N)NC(=O)c1ccc(C2CCN(C(=O)c3cccc(F)c3)CC2)c(C(F)(F)F)c1 [N-{4-[1-(3-Fluoro-benzoyl)-piperidin-4-yl]-3-trifluoromethyl-benzoyl}-guanidine],105
6,CS(=O)(=O)c1cccc(C(=O)N2CCC(c3ccc(C(=O)NC(=N)N)cc3C(F)(F)F)CC2)c1 [N-{4-[1-(3-Methanesulfonyl-benzoyl)-piperidin-4-yl]-3-trifluoromethyl-benzoyl}-guanidine],63
7,COc1cccc(C(=O)N2CCC(c3ccc(C(=O)NC(=N)N)cc3C(F)(F)F)CC2)c1 [N-{4-[1-(3-Methoxy-benzoyl)-piperidin-4-yl]-3-trifluoromethyl-benzoyl}-guanidine],106
8,COCCC(=O)N1CCC(c2ccc(C(=O)NC(=N)N)cc2C(F)(F)F)CC1 [N-{4-[1-(3-Methoxy-propionyl)-piperidin-4-yl]-3-trifluoromethyl-benzoyl}-guanidine],20
9,COc1cccnc1C(=O)N1CCC(c2ccc(C(=O)NC(=N)N)cc2C(F)(F)F)CC1 [N-{4-[1-(3-Methoxy-pyridine-2-carbonyl)-piperidin-4-yl]-3-trifluoromethyl-benzoyl}-guanidine],55
10,Cn1cncc1C(=O)N1CCC(c2ccc(C(=O)NC(=N)N)cc2C(F)(F)F)CC1 [N-{4-[1-(3-Methyl-3H-imidazole-4-carbonyl)-piperidin-4-yl]-3-trifluoromethyl-benzoyl}-guanidine],15
11,CC(C)CC(=O)N1CCC(c2ccc(C(=O)NC(=N)N)cc2C(F)(F)F)CC1 [N-{4-[1-(3-Methyl-butyryl)-piperidin-4-yl]-3-trifluoromethyl-benzoyl}-guanidine],49
12,N=C(N)NC(=O)c1ccc(C2CCN(C(=O)c3cccc(-c4cnco4)c3)CC2)c(C(F)(F)F)c1 [N-{4-[1-(3-Oxazol-5-yl-benzoyl)-piperidin-4-yl]-3-trifluoromethyl-benzoyl}-guanidine],14
13,N=C(N)NC(=O)c1ccc(C2CCN(C(=O)CCc3ccccc3)CC2)c(C(F)(F)F)c1 [N-{4-[1-(3-Phenyl-propionyl)-piperidin-4-yl]-3-trifluoromethyl-benzoyl}-guanidine],75
14,N=C(N)NC(=O)c1ccc(C2CCN(C(=O)c3cccc(-c4ccccn4)c3)CC2)c(C(F)(F)F)c1 [N-{4-[1-(3-Pyridin-2-yl-benzoyl)-piperidin-4-yl]-3-trifluoromethyl-benzoyl}-guanidine],147
15,N=C(N)NC(=O)c1ccc(C2CCN(C(=O)c3cccc(S(=O)(=O)C(F)(F)F)c3)CC2)c(C(F)(F)F)c1 [N-{4-[1-(3-Trifluoromethanesulfonyl-benzoyl)-piperidin-4-yl]-3-trifluoromethyl-benzoyl}-guanidine],280
16,CS(=O)(=O)c1cc(C(=O)NC(=N)N)ccc1C1CCN(C(=O)c2cccc(C#N)c2)CC1 [N-{4-[1-(3-cyano-benzoyl)-piperidin-4-yl]-3-methanesulfonyl-benzoyl}-guanidine],34
17,Cc1cc(C2CCN(C(=O)c3cccc(C#N)c3)CC2)c(S(C)(=O)=O)cc1C(=O)NC(=N)N [N-{4-[1-(3-cyano-benzoyl)-piperidin-4-yl]-5-methanesulfonyl-2-methyl-benzoyl}-guanidine],23
18,"N=C(N)NC(=O)c1ccc(C2CCN(C(=O)C3(N)CCS(=O)(=O)CC3)CC2)c(C(F)(F)F)c1 [N-{4-[1-(4-Amino-1,1-dioxo-hexahydro-g-thiopyran-4-carbonyl)-piperidin-4-yl]-3-trifluoromethyl-benzoyl}-guanidine]",11
19,N=C(N)NC(=O)c1ccc(C2CCN(C(=O)C3(N)CCOCC3)CC2)c(C(F)(F)F)c1 [N-{4-[1-(4-Amino-tetrahydro-pyran-4-carbonyl)-piperidin-4-yl]-3-trifluoromethyl-benzoyl}-guanidine],18
20,CN(C)c1ccc(C(=O)N2CCC(c3ccc(C(=O)NC(=N)N)cc3C(F)(F)F)CC2)cc1 [N-{4-[1-(4-Dimethylamino-benzoyl)-piperidin-4-yl]-3-trifluoromethyl-benzoyl}-guanidine],180
21,N=C(N)NC(=O)c1ccc(C2CCN(C(=O)c3ccc(F)cc3C(F)(F)F)CC2)c(C(F)(F)F)c1 [N-{4-[1-(4-Fluoro-2-trifluoromethyl-benzoyl)-piperidin-4-yl]-3-trifluoromethyl-benzoyl}-guanidine],350
22,COc1cc(C2CCN(C(=O)c3ccc(F)cc3)CC2)c(C(F)(F)F)cc1C(=O)NC(=N)N [N-{4-[1-(4-Fluoro-benzoyl)-piperidin-4-yl]-2-methoxy-5-trifluoromethyl-benzoyl}-guanidine],16
23,Cc1cc(C2CCN(C(=O)c3ccc(F)cc3)CC2)c(C(F)(F)F)cc1C(=O)NC(=N)N [N-{4-[1-(4-Fluoro-benzoyl)-piperidin-4-yl]-2-methyl-5-trifluoromethyl-benzoyl}-guanidine],7
24,CS(=O)(=O)c1cc(C(=O)NC(=N)N)ccc1C1CCN(C(=O)c2ccc(F)cc2)CC1 [N-{4-[1-(4-Fluoro-benzoyl)-piperidin-4-yl]-3-methanesulfonyl-benzoyl}-guanidine],18
25,Cc1cc(C2CCN(C(=O)c3ccc(F)cc3)CC2)c(S(C)(=O)=O)cc1C(=O)NC(=N)N [N-{4-[1-(4-Fluoro-benzoyl)-piperidin-4-yl]-5-methanesulfonyl-2-methyl-benzoyl}-guanidine],23
26,Cc1cc(C2CCN(C(=O)c3ccc(S(C)(=O)=O)cc3)CC2)c(C(F)(F)F)cc1C(=O)NC(=N)N [N-{4-[1-(4-Methanesulfonyl-benzoyl)-piperidin-4-yl]-2-methyl-5-trifluoromethyl-benzoyl}-guanidine],20

# The next lines start with the values.
row,IC50 [nM],Structure (SMILES)
1,66,COc1cc(C(=O)N2CCC(c3ccc(C(=O)NC(=N)N)cc3C(F)(F)F)CC2)ccc1-c1cccnc1 [N-{4-[1-(3-Methoxy-4-pyridin-3-yl-benzoyl)-piperidin-4-yl]-3-trifluoromethyl-benzoyl}-guanidine]
2,150,N=C(N)NC(=O)c1ccc(C2CCN(C(=O)c3cccc(-n4cccn4)c3)CC2)c(C(F)(F)F)c1 [N-{4-[1-(3-Pyrazol-1-yl-benzoyl)-piperidin-4-yl]-3-trifluoromethyl-benzoyl}-guanidine]
3,140,N=C(N)NC(=O)c1ccc(C2CCN(C(=O)c3cccc(-c4cccnc4)c3)CC2)c(C(F)(F)F)c1 [N-{4-[1-(3-Pyridin-3-yl-benzoyl)-piperidin-4-yl]-3-trifluoromethyl-benzoyl}-guanidine]
4,26,"N=C(N)NC(=O)c1ccc(C2=CCN(C(=O)c3cnc[nH]3)CC2)c(C(F)(F)F)c1 [N-{4-[1-(3H-Imidazole-4-carbonyl)-1,2,3,6-tetrahydro-pyridin-4-yl]-3-trifluoromethyl-benzoyl}-guanidine]"
5,320,N=C(N)NC(=O)c1ccc(C2CCN(C(=O)c3ccc(Cl)cc3)CC2)c(C(F)(F)F)c1 [N-{4-[1-(4-Chloro-benzoyl)-piperidin-4-yl]-3-trifluoromethyl-benzoyl}-guanidine]
6,24,N#Cc1ccc(C(=O)N2CCC(c3ccc(C(=O)NC(=N)N)cc3C(F)(F)F)CC2)cc1 [N-{4-[1-(4-Cyano-benzoyl)-piperidin-4-yl]-3-trifluoromethyl-benzoyl}-guanidine]
7,110,N=C(N)NC(=O)c1ccc(C2CCN(C(=O)c3ccc(F)cc3)CC2)c(C(F)(F)F)c1 [N-{4-[1-(4-Fluoro-benzoyl)-piperidin-4-yl]-3-trifluoromethyl-benzoyl}-guanidine]
8,40,N=C(N)NC(=O)c1ccc(C2CCN(C(=O)c3ccc(F)cc3)C2)c(C(F)(F)F)c1 (stereo not drawn) [N-{4-[1-(4-Fluoro-benzoyl)-pyrrolidin-3-yl]-3-trifluoromethyl-benzoyl}-guanidine]
9,25,N=C(N)NC(=O)c1ccc(C2CCN(C(=O)c3ccc(O)cc3)CC2)c(C(F)(F)F)c1 [N-{4-[1-(4-Hydroxy-benzoyl)-piperidin-4-yl]-3-trifluoromethyl-benzoyl}-guanidine]
10,33,"N=C(N)NC(=O)c1ccc(C2=CCN(C(=O)c3ccc(-n4ccnc4)cc3)CC2)c(C(F)(F)F)c1 [N-{4-[1-(4-Imidazol-1-yl-benzoyl)-1,2,3,6-tetrahydro-pyridin-4-yl]-3-trifluoromethyl-benzoyl}-guanidine]"
11,71,N=C(N)NC(=O)c1ccc(C2CCN(C(=O)c3ccc(-n4ccnc4)cc3)CC2)c(C(F)(F)F)c1 [N-{4-[1-(4-Imidazol-1-yl-benzoyl)-piperidin-4-yl]-3-trifluoromethyl-benzoyl}-guanidine]
12,28,C[S+]([O-])c1ccc(C(=O)N2CCC(c3ccc(C(=O)NC(=N)N)cc3C(F)(F)F)CC2)cc1 (stereo not drawn) [N-{4-[1-(4-Methanesulfinyl-benzoyl)-piperidin-4-yl]-3-trifluoromethyl-benzoyl}-guanidine]
13,49,"CS(=O)(=O)c1ccc(C(=O)N2CC=C(c3ccc(C(=O)NC(=N)N)cc3C(F)(F)F)CC2)cc1 [N-{4-[1-(4-Methanesulfonyl-benzoyl)-1,2,3,6-tetrahydro-pyridin-4-yl]-3-trifluoromethyl-benzoyl}-guanidine]"
